Test results taken from patent US9309242B2, “Substituted pyrido[2,3-b]pyrazines as FGFR kinase inhibitors” (priority 2011, dated 2016).
Where two headings read alike, the source gives them in different places.

Experiments:
[1] = test system: Ba/F3-FGFR1-transfected cells; assay: Ba/F3-FGFR1 (plus IL3) cellular proliferation assay, counterscreen with 10 ng/ml murine IL3; type: cell-based; conditions: read-out: BAF3-FGFR1 (PLUS IL3) pIC50 (converted)
In short: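 Ba/F3-FGFR1 cells (20000/well) in RPMI-1640 with 10% FBS exposed to compound for 24 h at 37° C., 5% CO2, then Alamar Blue (resazurin) added for 4 h; fluorescence read at ex 540/em 590 nm. Counterscreen run identically with 10 ng/ml murine IL3.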

FGFR4 (h) = FGFR4 (h) (Homo sapiens, UniProt P22455); assay: FGFR4 (enzymatic assay), TR-FRET; type: biochemical; conditions: FGFR 4 pIC50, enzymatic assay
Chain of FGFR4 (h) (P22455 22-802): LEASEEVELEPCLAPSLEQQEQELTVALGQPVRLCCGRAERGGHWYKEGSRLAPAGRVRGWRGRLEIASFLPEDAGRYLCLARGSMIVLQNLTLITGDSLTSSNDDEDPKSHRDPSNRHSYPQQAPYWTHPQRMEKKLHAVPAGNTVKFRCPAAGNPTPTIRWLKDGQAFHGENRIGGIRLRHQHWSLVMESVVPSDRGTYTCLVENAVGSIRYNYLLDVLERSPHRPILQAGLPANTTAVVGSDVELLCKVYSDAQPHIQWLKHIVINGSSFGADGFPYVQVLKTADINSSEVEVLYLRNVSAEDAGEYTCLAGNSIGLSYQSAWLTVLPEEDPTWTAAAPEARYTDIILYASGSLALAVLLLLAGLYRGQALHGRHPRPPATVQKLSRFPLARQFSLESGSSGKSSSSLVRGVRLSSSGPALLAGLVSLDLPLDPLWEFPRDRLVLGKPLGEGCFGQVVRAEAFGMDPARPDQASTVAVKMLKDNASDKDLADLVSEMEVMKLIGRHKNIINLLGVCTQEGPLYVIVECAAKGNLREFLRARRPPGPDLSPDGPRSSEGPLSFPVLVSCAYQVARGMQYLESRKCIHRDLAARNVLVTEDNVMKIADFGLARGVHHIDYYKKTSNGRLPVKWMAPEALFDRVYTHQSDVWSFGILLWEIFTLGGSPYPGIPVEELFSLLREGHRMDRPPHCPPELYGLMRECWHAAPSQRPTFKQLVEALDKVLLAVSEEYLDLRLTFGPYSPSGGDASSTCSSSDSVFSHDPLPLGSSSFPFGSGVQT

[2] = target: T1, Ba/F3-FGFR3-transfected cells (Homo sapiens, UniProt P22607); assay: Ba/F3-FGFR3 (minus IL3) cellular proliferation assay, Alamar Blue; type: cell-based
T1 construct: BAF3-FGFR3 (MIN IL3) pIC50; other: minus IL3
In short: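 With or without 10 ng/ml murine IL3, FGFR3-dependent Ba/F3 cells were treated 24 h with compound, then viability was gauged by Alamar Blue fluorescence after 4 h (ex 540/em 590 nm).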

[3] = target: Ba/F3-FGFR4-transfected cells (Homo sapiens, UniProt P22455); assay: Ba/F3-FGFR4 cellular proliferation assay, Alamar Blue; type: cell-based
In short: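 20000 cells/well, RPMI-1640 (phenol red free) + 10% FBS + 2 mM L-Gln; cpd from DMSO; 24 h, 37° C, 5% CO2; Alamar Blue 4 h; RFU ex 540/em 590 nm.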

[4] = target: T2, Ba/F3-FGFR1-transfected cells (Homo sapiens, UniProt P11362); assay: Ba/F3-FGFR1 (minus IL3) cellular proliferation assay, Alamar Blue; type: cell-based
T2 construct: BAF3-FGFR1 (MIN IL3) pIC50; other: minus IL3
T2 sequence (P11362 whole entry, change not shown): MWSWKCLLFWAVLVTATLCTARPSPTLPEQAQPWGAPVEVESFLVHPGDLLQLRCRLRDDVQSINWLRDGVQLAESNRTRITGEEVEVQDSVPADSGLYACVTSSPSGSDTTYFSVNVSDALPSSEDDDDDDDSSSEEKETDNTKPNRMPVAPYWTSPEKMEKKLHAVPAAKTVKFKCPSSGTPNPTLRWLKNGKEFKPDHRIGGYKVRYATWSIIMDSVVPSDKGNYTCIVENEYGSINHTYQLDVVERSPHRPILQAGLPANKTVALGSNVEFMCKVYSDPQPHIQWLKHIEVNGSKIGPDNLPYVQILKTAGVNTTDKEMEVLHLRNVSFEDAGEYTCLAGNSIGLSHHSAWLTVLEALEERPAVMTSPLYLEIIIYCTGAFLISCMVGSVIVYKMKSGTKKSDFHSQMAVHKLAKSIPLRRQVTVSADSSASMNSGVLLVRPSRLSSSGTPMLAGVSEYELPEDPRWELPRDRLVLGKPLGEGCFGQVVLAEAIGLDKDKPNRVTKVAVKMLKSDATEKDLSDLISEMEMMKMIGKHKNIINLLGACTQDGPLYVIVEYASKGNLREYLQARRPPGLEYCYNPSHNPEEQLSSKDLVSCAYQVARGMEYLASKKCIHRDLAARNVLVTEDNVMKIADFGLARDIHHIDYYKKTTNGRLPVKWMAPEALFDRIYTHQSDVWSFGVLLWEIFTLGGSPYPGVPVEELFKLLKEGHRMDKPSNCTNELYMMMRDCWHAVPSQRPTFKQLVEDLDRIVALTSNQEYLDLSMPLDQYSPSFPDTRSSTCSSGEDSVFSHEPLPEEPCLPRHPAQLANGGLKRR
In short: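 Viability of transfected Ba/F3-FGFR1 cells (20000 per well, RPMI-1640 with 10% FBS and 2 mM L-glutamine) was scored by resazurin-based Alamar Blue reduction over 4 h, after 24 h treatment with compound at 37 °C under 5% CO2.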

FGFR3 (h) = FGFR3 (h) (Homo sapiens, UniProt P22607); assay: FGFR3 (enzymatic assay), TR-FRET; type: biochemical; conditions: read-out: FGFR 3 pIC50 (converted)
Chain of FGFR3 (h) (P22607 23-806): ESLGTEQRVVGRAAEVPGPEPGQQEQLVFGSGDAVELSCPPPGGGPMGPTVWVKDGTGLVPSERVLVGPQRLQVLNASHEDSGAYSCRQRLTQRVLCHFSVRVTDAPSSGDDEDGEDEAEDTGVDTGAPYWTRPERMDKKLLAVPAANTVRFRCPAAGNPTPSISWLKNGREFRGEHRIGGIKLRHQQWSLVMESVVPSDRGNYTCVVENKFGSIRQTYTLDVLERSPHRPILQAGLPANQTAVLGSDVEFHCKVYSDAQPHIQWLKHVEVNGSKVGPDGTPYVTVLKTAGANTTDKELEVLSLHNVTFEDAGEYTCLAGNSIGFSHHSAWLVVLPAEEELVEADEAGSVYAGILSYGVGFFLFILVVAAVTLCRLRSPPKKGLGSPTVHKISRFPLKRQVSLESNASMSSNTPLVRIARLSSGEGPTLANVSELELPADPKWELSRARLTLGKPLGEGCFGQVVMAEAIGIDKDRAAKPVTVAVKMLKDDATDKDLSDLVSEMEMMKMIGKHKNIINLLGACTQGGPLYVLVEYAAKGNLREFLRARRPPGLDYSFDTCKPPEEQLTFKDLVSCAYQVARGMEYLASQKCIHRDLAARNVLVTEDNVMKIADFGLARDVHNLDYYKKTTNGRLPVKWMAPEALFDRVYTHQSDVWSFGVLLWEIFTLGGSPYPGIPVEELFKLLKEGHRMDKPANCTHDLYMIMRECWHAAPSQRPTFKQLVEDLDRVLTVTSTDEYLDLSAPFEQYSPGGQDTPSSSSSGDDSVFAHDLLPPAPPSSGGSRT
From the text: Time-Resolved Fluorescence Resonance Energy Transfer (TR-FRET) signal (ex340 nm.

[5] = test system: Ba/F3-KDR-transfected cells; assay: Ba/F3-KDR (plus IL3) cellular proliferation assay, counterscreen with 10 ng/ml murine IL3; type: cell-based; conditions: read-out: BAF3-KDR (PLUS IL3) pIC50 (converted)
In short: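 20000 cells/well, RPMI-1640 + 10% FBS + 2 mM L-Gln; compound 24 h, 37° C/5% CO2; Alamar Blue 4 h; RFU ex540/em590.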

FGFR2 (h) = FGFR2 (h) (Homo sapiens, UniProt P21802); assay: FGFR2 (enzymatic assay), TR-FRET; type: biochemical; conditions: enzymatic assay, read-out: FGFR 2 pIC50 (converted)
Chain of FGFR2 (h) (P21802 22-821): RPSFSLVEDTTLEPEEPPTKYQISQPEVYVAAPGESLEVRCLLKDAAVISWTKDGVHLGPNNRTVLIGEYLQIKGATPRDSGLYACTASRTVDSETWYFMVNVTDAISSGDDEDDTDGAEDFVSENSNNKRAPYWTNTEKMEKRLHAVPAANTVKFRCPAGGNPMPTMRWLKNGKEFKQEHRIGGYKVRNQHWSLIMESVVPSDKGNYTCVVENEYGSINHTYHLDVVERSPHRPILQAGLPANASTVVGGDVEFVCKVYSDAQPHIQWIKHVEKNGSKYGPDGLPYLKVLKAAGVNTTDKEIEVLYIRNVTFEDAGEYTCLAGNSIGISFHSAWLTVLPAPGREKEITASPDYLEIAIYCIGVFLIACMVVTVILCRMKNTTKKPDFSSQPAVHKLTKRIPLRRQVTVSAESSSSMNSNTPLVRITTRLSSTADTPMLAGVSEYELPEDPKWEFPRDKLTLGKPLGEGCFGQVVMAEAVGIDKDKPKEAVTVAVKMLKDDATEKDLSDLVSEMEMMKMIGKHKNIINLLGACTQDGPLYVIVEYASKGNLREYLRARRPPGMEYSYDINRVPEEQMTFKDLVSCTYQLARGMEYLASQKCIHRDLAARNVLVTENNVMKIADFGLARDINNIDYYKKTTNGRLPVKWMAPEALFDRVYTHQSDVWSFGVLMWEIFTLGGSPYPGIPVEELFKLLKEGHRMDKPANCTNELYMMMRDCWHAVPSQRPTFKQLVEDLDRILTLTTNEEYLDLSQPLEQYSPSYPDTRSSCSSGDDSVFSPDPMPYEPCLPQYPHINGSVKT
In short: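 Human FGFR2 (150 ng/ml) was incubated with 500 nM Btn-Flt3 substrate and 0.4 μM ATP in 50 mM HEPES pH 7.5, 6 mM MnCl2, 1 mM DTT, 0.1 mM Na3VO4, 0.01% Triton-X-100. Compound was present at 1% DMSO final.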

KDR (h) = KDR (h) (Homo sapiens, UniProt P35968); assay: KDR (VEGFR2) (enzymatic assay), TR-FRET; type: biochemical; conditions: read-out: VEGFR 2 (KDR) pIC50 (converted)
Chain of KDR (h) (P35968 20-1356): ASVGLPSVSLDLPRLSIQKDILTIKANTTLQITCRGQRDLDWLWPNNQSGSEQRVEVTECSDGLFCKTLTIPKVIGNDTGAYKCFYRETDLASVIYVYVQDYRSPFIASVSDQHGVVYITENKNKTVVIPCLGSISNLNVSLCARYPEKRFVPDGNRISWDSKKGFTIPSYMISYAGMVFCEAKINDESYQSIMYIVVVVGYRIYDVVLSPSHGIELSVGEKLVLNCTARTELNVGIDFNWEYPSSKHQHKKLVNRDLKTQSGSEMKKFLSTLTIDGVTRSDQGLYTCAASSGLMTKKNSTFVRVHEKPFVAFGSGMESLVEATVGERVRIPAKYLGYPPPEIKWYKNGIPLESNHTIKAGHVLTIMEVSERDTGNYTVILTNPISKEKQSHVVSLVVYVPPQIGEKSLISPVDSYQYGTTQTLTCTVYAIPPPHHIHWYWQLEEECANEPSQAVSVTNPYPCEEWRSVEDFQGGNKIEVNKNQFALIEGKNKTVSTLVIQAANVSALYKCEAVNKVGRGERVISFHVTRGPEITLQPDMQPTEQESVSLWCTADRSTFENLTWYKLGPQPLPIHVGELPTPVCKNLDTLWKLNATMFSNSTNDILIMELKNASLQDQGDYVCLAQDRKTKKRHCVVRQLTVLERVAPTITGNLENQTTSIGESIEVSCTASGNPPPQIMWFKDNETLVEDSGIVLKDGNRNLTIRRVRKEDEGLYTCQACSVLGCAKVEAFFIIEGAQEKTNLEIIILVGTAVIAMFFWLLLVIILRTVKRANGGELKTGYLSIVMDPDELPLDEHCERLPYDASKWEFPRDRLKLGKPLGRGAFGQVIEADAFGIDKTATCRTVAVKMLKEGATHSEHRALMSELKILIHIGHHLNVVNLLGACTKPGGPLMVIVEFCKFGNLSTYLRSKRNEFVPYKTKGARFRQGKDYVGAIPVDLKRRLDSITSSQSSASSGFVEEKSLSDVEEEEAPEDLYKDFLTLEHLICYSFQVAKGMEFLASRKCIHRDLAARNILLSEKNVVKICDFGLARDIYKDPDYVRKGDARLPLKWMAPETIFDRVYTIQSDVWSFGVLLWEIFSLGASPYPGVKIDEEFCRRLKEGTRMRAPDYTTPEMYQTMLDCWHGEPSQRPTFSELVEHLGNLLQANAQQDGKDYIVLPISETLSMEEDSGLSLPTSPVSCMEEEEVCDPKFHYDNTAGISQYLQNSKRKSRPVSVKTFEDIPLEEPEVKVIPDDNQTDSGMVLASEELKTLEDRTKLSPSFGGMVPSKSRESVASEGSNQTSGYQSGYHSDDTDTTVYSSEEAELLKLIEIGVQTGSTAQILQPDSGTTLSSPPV
In short: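 Read-out is TR-FRET (ex 340 nm, em 620 and 655 nm) in RFU, after an EDTA stop carrying Eu-labelled anti-phosphotyrosine and SA-XL-665 (60 min, RT). The preceding kinase reaction ran 120 min at RT with 150 ng/ml enzyme, 500 nM Btn-Flt3 and 3 μM ATP.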

[6] = plus IL3 (10 ng/ml murine IL3, counterscreen)
[7] = average values if tested multiple times

Structure (SMILES) | IC50 [1, 6] [nM] | IC50 (FGFR4 (h); [7]) [nM] | BAF3-FGFR3 (MIN IL3) pIC50 [2] | BAF3-FGFR4 pIC50 [3] | BAF3-FGFR1 (MIN IL3) pIC50 [4] | IC50 (FGFR3 (h); [7]) [nM] | IC50 [5, 6] [nM] | IC50 (FGFR2 (h); [7]) [nM] | IC50 (KDR (h); [7]) [nM] | IC50 [1] [nM] | IC50 [5] [nM] | IC50 (FGFR4 (h)) [nM] | IC50 (FGFR3 (h)) [nM] | IC50 (FGFR2 (h)) [nM] | IC50 (KDR (h)) [nM]
COc1cc(OC)c(F)c(N(CC(O)COC(C)C)c2ccc3ncc(-c4cnn(C)c4)nc3n2)c1 (single isomer, unassigned) [Compound 75] | > 10000 | 2.24 | 7.75 | 7.33 | 7.76 | 1.95 | > 10000 | 2.63 | 23.4 | – | – | – | – | – | –
COc1cc(OC)c(F)c(N(Cc2ncccn2)c2ccc3ncc(-c4cnn(C)c4)nc3n2)c1 [Compound 9] | – | 25.1 | ~7.2 | 6.79 | 7.4 | 15.8 | – | 12.6 | 50.1 | > 10000 | > 10000 | – | – | – | –
COc1cc(OC)c(F)c(N(Cc2nc[nH]n2)c2ccc3ncc(-c4cnn(C)c4)nc3n2)c1F [Compound 85] | > 10000 | 2.24 | 8.14 | 7.66 | 8.28 | 2.14 | > 10000 | 2.04 | 6.76 | – | – | – | – | – | –
CNCCN(c1ccc2ncc(-c3cnn(C)c3)nc2n1)c1c(F)c(O)cc(OC)c1F [Compound 122] | > 10000 | – | 6.09 | 5.67 | 6.74 | – | > 10000 | – | – | – | – | 9.55 | 2.51 | 3.31 | 50.1
COc1cc(OC)c(F)c(N(Cc2nc[nH]n2)c2ccc3ncc(-c4cnn(C)c4)nc3n2)c1 [Compound 86] | > 10000 | 1.12 | ~7.90 | 7.33 | 7.74 | 1 | > 10000 | 1.41 | 7.59 | – | – | – | – | – | –
COc1cc(OC)c(F)c(/N=c2\ccc3ncc(-c4cnn(C)c4)nc3n2CCCN2CCCC2=O)c1F [Compound 55] | 7760 | 0.447 | 8.19 | 7.71 | 8.12 | 0.49 | > 10000 | 1.26 | 2.82 | – | – | – | – | – | –
COCC(O)CN(c1ccc2ncc(-c3cnn(C)c3)nc2n1)c1c(F)c(OC)cc(OC)c1F (stereo not drawn) [Compound 50] | > 10000 | 3.24 | ~8.11 | 7.66 | 8.10 | 3.63 | > 10000 | 3.89 | 21.9 | – | – | – | – | – | –
COc1cc(OC)c(F)c(N(CC2CCCCO2)c2ccc3ncc(-c4cnn(C)c4)nc3n2)c1 (stereo not drawn) [Compound 139] | > 10000 | – | 7.38 | 6.61 | 7.40 | – | > 10000 | – | – | – | – | 4.17 | 2.75 | 3.31 | 28.8
COc1cc(OC)c(F)c(N(CCO)c2ccc3ncc(-c4cnn(C)c4)nc3n2)c1F [Compound 20] | > 10000 | 3.98 | 8.15 | 7.63 | 8.35 | 1.58 | > 10000 | 126 | 316 | – | – | – | – | – | –
COc1cc(OC)c(Cl)c(N(C[C@H]2CCC(=O)N2)c2ccc3ncc(-c4cnn(C)c4)nc3n2)c1Cl [Compound 97] | > 10000 | 26.3 | ~6.83 | 5.95 | 6.80 | 4.68 | > 10000 | 6.61 | 95.5 | – | – | – | – | – | –
COc1cc(OC)c(Cl)c(/N=c2\ccc3ncc(-c4cnn(C)c4)nc3n2CC2CCC(=O)N2)c1Cl (single isomer, unassigned) [Compound 87] | > 9120 | 38.9 | ~6.93 | 5.89 | 6.84 | 4.57 | > 10000 | 6.03 | 117 | – | – | – | – | – | –
COc1cc(OC)c(F)c(N(Cc2nn[nH]n2)c2ccc3ncc(-c4cnn(C)c4)nc3n2)c1 [Compound 140] | > 10000 | – | <5 | <5 | <5 | – | > 10000 | – | – | – | – | 11.7 | 5.62 | 4.47 | 56.2
COc1cc(OC)cc(N(CC(O)C(F)(F)F)c2ccc3ncc(-c4cnn(C)c4)nc3n2)c1 (single isomer, unassigned) [Compound 33] | > 10000 | 1.41 | ~7.64 | ~7.03 | 7.60 | 0.708 | > 10000 | 2.04 | 75.9 | – | – | – | – | – | –
CNCCN(c1ccc2ncc(-c3cnn(C)c3)nc2n1)c1cc(OC)cc(OC)c1F [Compound 39] | – | 11 | ~7.61 | 6.73 | 7.97 | 3.98 | – | 5.37 | 46.8 | > 10000 | > 10000 | – | – | – | –
COc1cc(OC)c(F)c(N(Cc2c[nH]c(C)n2)c2ccc3ncc(-c4cnn(C)c4)nc3n2)c1 [Compound 137] | > 10000 | – | 7.64 | 7.23 | ~8.11 | – | > 10000 | – | – | – | – | 1.7 | 1.58 | 2.04 | 11.2
CNCCn1/c(=N/c2cc(OC)cc(OC)c2F)ccc2ncc(-c3cnn(C)c3)nc21 [Compound 38] | > 10000 | 17.8 | 6.27 | 5.74 | 6.92 | 4.9 | > 10000 | 4.57 | 74.1 | – | – | – | – | – | –
COc1cc(OC)c(F)c(N(CC2COC(=O)N2)c2ccc3ncc(-c4cnn(C)c4)nc3n2)c1 (single isomer, unassigned) [Compound 111] | > 10000 | 1.58 | 7.58 | 7.27 | 7.79 | 1 | > 10000 | 2 | 30.9 | – | – | – | – | – | –
COc1cc(/N=c2\ccc3ncc(-c4cnn(C)c4)nc3n2CC2COC(=O)N2)c(F)c(OC)c1 (single isomer, unassigned) [Compound 112] | > 10000 | 2.04 | ~7.27 | 6.67 | 7.23 | 0.776 | > 10000 | 1.66 | 17 | – | – | – | – | – | –
